Source: article PMC8344022, “Small-molecule inhibitor of AF9/ENL-DOT1L/AF4/AFF4 interactions suppresses malignant gene expression and tumor growth” (Theranostics, 2021)

How the values were obtained:
[1] = system: MCF-7 cells; assay: Antiproliferation assay (MTT); assay type: cell-based; details: Homo sapiens, MCF7, 168 h, 7-day incubation, read-out: Cytotoxicity EC50
Method: (§1) Antiproliferation assay. Proliferation inhibition assays for suspension blood cancer cells were performed using an XTT assay kit (Roche). Proliferation inhibition assays for solid tumor cell lines MCF-7, MDA-MB-231, Panc1, Panc28 were performed using an MTT assay (Sigma). The antiproliferation EC50 values were determined using Prism 5 and the reported results were the mean values of at least three independent experiments. The incubation time for compound 1 was 7 days and that for EPZ4777 was 14 days.

[2] = system: Panc-1 cells; assay: Antiproliferation assay (MTT); assay type: cell-based; details: Homo sapiens, 168 h, 7-day incubation, read-out: Cytotoxicity EC50
Method: as §1

[3] = system: Panc-28 cells; assay: Antiproliferation assay (MTT); assay type: cell-based; details: 168 h, 7-day incubation, read-out: Cytotoxicity EC50
Method: as §1

[4] = system: MDA-MB-231 cells; assay: Antiproliferation assay (MTT); assay type: cell-based; details: Homo sapiens, 168 h, 7-day incubation, read-out: Cytotoxicity EC50
Method: as §1

[5] = system: RPMI-8226 cells; assay: Antiproliferation assay (XTT); assay type: cell-based; details: Homo sapiens, 168 h, 7-day incubation, read-out: Cytotoxicity EC50
Method: as §1

[6] = system: Molm-13 cells; assay: Antiproliferation assay (XTT); assay type: cell-based; details: Homo sapiens, 168 h, 7-day incubation, read-out: Cytotoxicity EC50
Method: as §1

[7] = system: Jurkat cells; assay: Antiproliferation assay (XTT); assay type: cell-based; details: Homo sapiens, 168 h, 7-day incubation, read-out: Cytotoxicity EC50
Method: as §1

[8] = system: THP-1 cells; assay: Antiproliferation assay (XTT); assay type: cell-based; details: Homo sapiens, 168 h, 7-day incubation, read-out: Cytotoxicity EC50
Method: as §1

[9] = system: Kasumi-1 cells; assay: Antiproliferation assay (XTT); assay type: cell-based; details: Homo sapiens, 168 h, 7-day incubation, read-out: Cytotoxicity EC50
Method: as §1

[10] = system: MV4;11 cells; assay: Antiproliferation assay (XTT); assay type: cell-based; details: Homo sapiens, 168 h, 7-day incubation, read-out: Cytotoxicity EC50
Method: as §1

[11] = system: HL60 cells; assay: Antiproliferation assay (XTT); assay type: cell-based; details: Homo sapiens, HL-60, 168 h, 7-day incubation, read-out: Cytotoxicity EC50
Method: as §1

[12] = system: U266 cells; assay: Antiproliferation assay (XTT); assay type: cell-based; details: Homo sapiens, U-266, 168 h, 7-day incubation, read-out: Cytotoxicity EC50
Method: as §1

[13] = target: T1, AF9 AHD bound to DOT1L-coated beads (Homo sapiens, UniProt P42568); assay: Western blot based pull-down assay; assay type: binding; details: increasing concentrations
T1 construct: cDNA for human AF9 AHD domain (475-568) and ENL AHD domain (489-559) was synthesized; made in house; host or cells: E. coli BL21(DE3)
Method: A non-optical pull-down assay was used to further validate compound 1. DOT1L-coated beads were incubated with AF9 AHD in the presence of increasing concentrations of 1.
Western blot based pull-down assay. Biotinylated DOT1L peptide (0.25 mg/mL) was incubated with streptavidin agarose beads in PBS containing 0.1% Triton X-100 (400 µL) for 3h to yield, after washing, DOT1L-coated beads. MBP-AF9 AHD (0.2 µM, 40 µL) was pre-incubated with a compound for 30 min before adding to the beads. After 6 hours incubation at 4 °C, the beads were collected, thoroughly washed, and subjected to SDS-PAGE and analyzed by Western blot using an MBP Mouse mAb (#2396, Cell signaling).

[14] = target: T2, AF9-DOT1L interaction (Homo sapiens, UniProt P42568); assay: Alpha assay, AF9 AHD-DOT1L peptide interaction; assay type: binding; details: read-out: IC50, inhibition of AF9-DOT1L interaction
T2 construct: cDNA for human AF9 AHD domain (475-568) and ENL AHD domain (489-559) was synthesized; made in house; host or cells: E. coli BL21(DE3)
T2 sequence (P42568 475-568): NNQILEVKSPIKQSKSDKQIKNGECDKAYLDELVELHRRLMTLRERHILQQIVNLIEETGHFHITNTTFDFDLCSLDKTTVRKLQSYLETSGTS
Source text: We developed an Alpha (amplified luminescent proximity homogeneous assay) assay to determine the binding and inhibition of the PPI between maltose-binding protein (MBP)-tagged AF9 AHD and a biotin-labeled DOT1L peptide, using AlphaLisa streptavidin donor beads and anti-MBP acceptor beads. Laser excitation to the donor beads generates singlet oxygen radicals, which can travel for <200 nm in solution and cannot reach the free acceptor beads. The PPI brings the DOT1L coated donor beads and AHD coated acceptor beads together, allowing the radicals to activate the acceptor beads and produce luminescence. […] We also developed a fluorescence polarization (FP) assay. A fluorescein-labeled DOT1L peptide has a higher freedom in solution with a lower polarization value.
Alpha assays. Alpha assays were developed using Perkin-Elmer AlphaLisa anti-MBP kit, which contains streptavidin donor beads and anti-MBP acceptor beads. The assay was performed using a MBP-protein (5 nM), a biotinylated peptide (40 nM), and increasing concentrations of a compound in 25 µL buffer (PBS with 0.5 % BSA, pH 7.5) in 384-well plates according to the manufacturer's protocol and measured with a Tecan SPARK microplate reader. Data were imported into Prism (version 5.0), and IC50 values from 3 independent experiments with standard deviation were obtained by using a standard dose-response curve fitting.

[15] = system: HoxA9, Meis1 and Myc expression in Molm-13 cells; assay: qPCR of MLL target genes; assay type: cell-based; details: 4 days
Method: (§2) Next, compound 1 was tested for its ability to change expression of characteristic MLL-r leukemia genes HoxA9, Meis1 and Myc. Myc is also overexpressed in a broad range of AML and other cancers. […] (Figure S5), presumably because SEC is not recruited there.
(§3) RNA extraction and Quantitative real-time PCR (qPCR). 10^5 cells/ml were incubated with a compound for 4 days and the RNA was extracted using RNeasy mini kit (#74104, Qiagen). 100-1000 ng of total RNA was reverse transcribed using iScript™ Reverse Transcription Supermix (Bio-Rad) using the manufacturer's protocol. Quantitative real-time PCR was carried out using Fast SYBR Green Master Mix (Applied Biosystems) according to the manufacturer's instructions. Measurements were performed in triplicate, using GAPDH as the reference gene. Real-time PCR was performed using Biosystems Step One Plus detection system. The following sequences of primers are used: […]

[16] = system: HoxA9, Meis1 and Myc expression in MV4;11 cells; assay: qPCR of MLL target genes; assay type: cell-based; details: 4 days
Method: as §2, §3

[17] = system: cancer cells; assay: Antiproliferation assays, cancer cell panel; assay type: cell-based; details: all cancer cells tested; read-out: EC50 against proliferation
Method: The differential antiproliferation activities of compound 1 is consistent with its ability to suppress DOT1L/H3K79 methylation and SEC regulated gene expression, which are critical to MLL-r leukemia and Myc-driven blood cancer, but largely dispensable to other solid tumor cells.
as §1

For `O=C(NC1CCNCC1)c1cn(-c2ccc(-c3cn[nH]c3)cc2)c(-c2ccccc2)n1` [Compound 3], the EC50 [1] was > 50 µM, the EC50 [2] was > 50 µM and the EC50 [3] was > 50 µM. The EC50 [4] was > 50 µM, the EC50 [5] was > 50 µM and the EC50 [6] was > 50 µM. For the same molecule, the EC50 [7] was > 50 µM, the EC50 [8] was > 50 µM and the EC50 [9] was > 50 µM. For the same molecule, the EC50 [10] was > 50 µM, the EC50 [11] was > 50 µM and the EC50 [12] was > 50 µM. For the same molecule, the “Beads-bound AF9 AHD in pull-down (Western blot)” value [13] was “cannot”, the IC50 [14] was > 50 µM and the “Expression of MLL target genes HoxA9, Meis1 and Myc” value [15] was “had no activity”. The “Expression of MLL target genes HoxA9, Meis1 and Myc” value [16] was “had no activity” and the EC50 [17] was > 50 µM.
